According to patent publication US20110039877A1, “USE OF 3, 11B-CIS-DIHYDROTETRABENAZINE IN THE TREATMENT OF MULTIPLE SCLEROSIS AND AUTOIMMUNE MYELITIS” (Biovail Laboratories International (Barbados) S.R.L., priority 2007, published 2011):
“Also recorded” adds a separate entry of the source.

Key:
DAT and VMAT2 in brain = settings: conscious rat brain; cited from earlier work
[1] = test system: experimental autoimmune encephalomyelitis (EAE) induced with mouse spinal cord homogenate in CFA; test: Experimental autoimmune encephalomyelitis (EAE) model of multiple sclerosis; type: in vivo, Biozzi mice; settings: for protection against EAE (clinical disease score, weight loss): days -1 to 10, Biozzi mice; for overall effect on EAE disease: general statement, no dose given
Method: Groups of 10 Biozzi mice aged between 5 and 8 weeks of age were challenged in the flank with mouse spinal cord homogenate (SCH) in complete Freund's adjuvant (CFA) in order to induce EAE. Treatments were given according to the schedule below. Treatment (n=8 per group) Group A—vehicle control Group B—RU350 30 mg/kg days −1 to 10 once daily by oral gavage Group C—RU350 10 mg/kg days −1 to 10 twice daily by oral gavage Group D—Positive control drug A 20 mg/ml solution of SCH in PBS was prepared and mixed in an equal volume with CFA. The mixture was sonicated in a Branson 1200 sonicator for 15 minutes and then homogenised for three minutes. An amount of 1 mg in 100 μl was administered per mouse by subcutaneous injection at the base of tail. In addition, mice were given 200 ng pertussis toxin in 0.5 ml by intraperitoneal (ip) injection on day 0 and again 48 hours later. Mice were treated according to the outline above from day −1 to day 10. The compound of formula (Ia) (i.e. RUS350) was prepared daily by dissolving 15 mg of the compound (stored at −20° C.) in sterile distilled water to give 6 mg/ml solution. A dose of 100 μl was given by oral gavage daily to the group B mice (equivalent to 30 mg/kg per 20 g mouse). For group C mice, 1 ml of the […] stock was further diluted 1:3 in sterile distilled water, and a dose of 100 μl was given orally twice daily (equivalent to 2×10 mg/kg per 20 g mouse). Distilled water served as the vehicle control for the mice in group A. Group D mice were given a dose of 5 mg/kg dexamethasone (100 μg in 100 μl per 20 g mouse) on days 3-7 and days 10-12. Moribund animals were euthanised according to Home Office regulations and all remaining animals were euthanized at day 28 post-induction. At termination, brains and spinal cords were taken from all animals and fixed for histopathology examination. Mice were weighed prior to EAE induction (Day 0) and then daily from day 5 until termination. Clinical disease was monitored from day 5 and scored according the following system: [table]

COc1cc2c(cc1O[11CH3])CCN1C[C@@H](CC(C)C)[C@H](O)C[C@H]21 (single isomer, unassigned) [(+)-α-[^11C]dihydrotetrabenazine]
distribution of radio-labelled isomer in the brain (DAT and VMAT2 in brain): accumulated in regions of the brain associated with higher concentrations of the neuronal membrane dopamine transporter (DAT) and the vesicular monoamine transporter (VMAT2)

COc1cc2c(cc1O[11CH3])CCN1C[C@H](CC(C)C)[C@@H](O)C[C@@H]21 [(−)-α-[^11C]dihydrotetrabenazine]
distribution of radio-labelled isomer in the brain (DAT and VMAT2 in brain): almost uniformly distributed in the brain

COc1cc2c(cc1OC)[C@H]1C[C@H](O)[C@@H](CC(C)C)CN1CC2 (single isomer, unassigned) [compound of formula (Ia)]
protection against EAE (clinical disease score, weight loss) ([1]; 10 mg/kg twice daily by oral gavage): very high level of protection
protection against EAE (clinical disease score, weight loss) ([1]; 30 mg/kg once daily by oral gavage): moderate degree of protection
overall effect on EAE disease [1]: profound effect on the disease; also recorded: levels of protection similar to that provided by treatment with steroids
overall effect on EAE disease ([1]; listed as formula (Ia)): inhibits the development of autoimmune encephalomyelitis

C[C@@H]1C[C@H]2[C@@H]3CCC4=CC(=O)C=C[C@]4(C)[C@@]3(F)[C@@H](O)C[C@]2(C)[C@@]1(O)C(=O)CO [steroid, dexamethasone, reference compound]
inhibition of severe EAE associated with weight loss ([1]; positive control, 5 mg/kg on days 3-7 and days 10-12, Biozzi mice): markedly inhibited this effect
